Assay results as given in paper PMC6651548, “Synthesis and AChE Inhibitory Activity of Novel Thiazolylhydrazone Derivatives” (Molecules, 2019).

Key:
[1] = target: T1, AChE (Homo sapiens, UniProt P22303); experiment: biochemical; conditions: for inhibition at 1000 µM: 10^−3 M; for IC50: 10^−3–10^−9 M concentrations; for inhibition at 100 µM: 10^−4 M
[2] = target: BChE (Homo sapiens, UniProt P06276); experiment: Anticholinesterase activity assay (modified Ellman method), BChE; assay type: biochemical; conditions: for inhibition at 1000 µM: 10^−3 M; for inhibition at 100 µM: 10^−4 M
Protocol: . Initially, all the obtained compounds were tested at 10^−3 M and 10^−4 M concentrations and the ChE inhibitory results are outlined in Table 1. […]. Compounds 3a, 3c and 3i indicated more than 50% activity at the 10^−4 M concentration. […]. […] According to the results of activity tests, some general results can be listed as follows. The compounds 3a, 3c and 3i contain the non-substituted, methoxy and trifluoromethyl substituents on the phenyl ring, respectively. […]
The inhibitory capacity of the obtained compounds on AChE and BChE biological activities was assessed using a modified Ellman’s spectrometric method, as described in our previous studies. Donepezil were used as a reference drug. All pipetting procedures in the enzyme inhibition assay were carried out via a robotics system, Biotek Precision XS (Winooski, VT, USA). A BioTek-Synergy H1 microplate reader (Winooski, VT, USA) was used to carry out measurements of percent inhibition at 412 nm, and the IC50 values of the selected compounds were performed as previously described.

[3] = target: T2, hMAO-A (Homo sapiens, UniProt P21397); experiment: Monoamine oxidase fluorometric inhibition assay, MAO-A; assay type: biochemical; conditions: for inhibition at 1000 µM: 10^−3 M; for inhibition at 100 µM: 10^−4 M
T2 construct: purchased Sigma-Aldrich (Steinheim, Germany)
T2 sequence (P21397 1-527): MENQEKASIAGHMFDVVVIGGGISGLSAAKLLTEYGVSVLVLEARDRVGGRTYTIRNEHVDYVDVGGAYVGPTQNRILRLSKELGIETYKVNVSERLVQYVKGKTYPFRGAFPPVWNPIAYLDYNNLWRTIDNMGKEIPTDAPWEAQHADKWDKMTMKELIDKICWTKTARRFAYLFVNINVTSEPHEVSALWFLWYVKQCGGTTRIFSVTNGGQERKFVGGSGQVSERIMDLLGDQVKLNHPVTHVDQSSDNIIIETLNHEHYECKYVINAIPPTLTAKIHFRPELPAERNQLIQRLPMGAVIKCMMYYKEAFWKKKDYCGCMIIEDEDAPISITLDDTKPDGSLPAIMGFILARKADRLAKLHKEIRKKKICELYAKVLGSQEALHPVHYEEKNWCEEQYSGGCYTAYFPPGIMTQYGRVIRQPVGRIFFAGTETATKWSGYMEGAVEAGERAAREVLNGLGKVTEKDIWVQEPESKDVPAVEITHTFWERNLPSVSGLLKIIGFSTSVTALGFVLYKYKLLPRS
Protocol: In order to investigate the monoamine oxidase enzyme inhibitory effects of synthesized compounds, MAO-A and MAO-B enzyme activities were performed by using a fluorometric inhibition method. Moclobemide and selegiline were used as standard drugs for MAO-A and MAO-B enzymes, respectively. Test compounds and standard drugs were used in the same concentrations as in AChE and BChE enzyme activity assays. In Table 2, MAO enzyme inhibitory results are given. […]. To investigate the MAO-A and MAO-B enzyme inhibition profiles of the synthesized compounds, the fluorometric enzyme inhibition assay was carried out, as previously defined by us. Ampliflu™ Red (10-Acetyl-3,7-dihydroxyphenoxazine) was used as a fluorescence reagent in this assay.

[4] = target: T3, hMAO-B (Homo sapiens, UniProt P27338); experiment: biochemical; conditions: for inhibition at 1000 µM: 10^−3 M; for inhibition at 1000 µM / inhibition at 100 µM: read-out: MAO-B % Inhibition; for inhibition at 100 µM: 10^−4 M
T3 construct: purchased Sigma-Aldrich (Steinheim, Germany)
T3 sequence (P27338 1-520): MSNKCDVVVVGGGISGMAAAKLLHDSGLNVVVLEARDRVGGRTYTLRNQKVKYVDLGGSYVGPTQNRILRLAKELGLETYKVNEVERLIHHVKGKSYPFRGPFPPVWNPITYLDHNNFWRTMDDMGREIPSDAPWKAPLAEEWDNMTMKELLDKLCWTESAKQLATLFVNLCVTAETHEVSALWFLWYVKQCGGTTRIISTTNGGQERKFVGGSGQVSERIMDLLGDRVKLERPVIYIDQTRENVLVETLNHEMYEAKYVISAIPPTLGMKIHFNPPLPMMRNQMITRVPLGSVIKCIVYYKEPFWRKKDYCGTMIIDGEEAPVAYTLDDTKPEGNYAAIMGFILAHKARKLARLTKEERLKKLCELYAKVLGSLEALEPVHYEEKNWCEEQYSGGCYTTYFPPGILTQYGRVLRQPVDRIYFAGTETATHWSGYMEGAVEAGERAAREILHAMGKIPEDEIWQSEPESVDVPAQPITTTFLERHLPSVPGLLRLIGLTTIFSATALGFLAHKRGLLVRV
Protocol: Test compounds and standard drugs were used in the same concentrations as in AChE and BChE enzyme activity assays. […] To investigate the MAO-A and MAO-B enzyme inhibition profiles of the synthesized compounds, the fluorometric enzyme inhibition assay was carried out, as previously defined by us. Ampliflu™ Red (10-Acetyl-3,7-dihydroxyphenoxazine) was used as a fluorescence reagent in this assay.

[5] = target: T1, AChE; experiment: Enzyme kinetic studies of AChE inhibition (Lineweaver-Burk plots); assay type: biochemical
Protocol: . The type of inhibition was estimated by means of linear Lineweaver-Burk […], and the substrate speed curves in the presence and absence of 3a, 3c and 3i of the strongest compounds were verified in the enzyme kinetics analysis. […] In the initial velocity measurements, different substrate concentrations, ranging from 600 µM to 18.75 µM, were used for the AChE enzyme. The secondary plots of the Km/Vmax (slope) versus changing concentrations were used to determine Ki (intercept on the x-axis) values of compounds [30]. […] Reversible inhibition comprises of the ensuing subtypes: competitive, uncompetitive, noncompetitive or mixed-type. Such inhibitions can be determined using Lineweaver–Burk plots. […] Based on the gained plot, a mixed type of inhibition by compound 3c was established. That is, the compound can bind to the enzyme–substrate complex or to the free enzyme. It also means that the compound is a reversible inhibitor; reversible compounds can be bound to the enzyme by non-covalent interactions such as ionic bonds, hydrophobic interactions and hydrogen bonds deprived of any chemical bonding or reaction with the enzyme. These interactions take place quickly and can be easily reversed. For that reason, the enzyme–inhibitor complex is rapidly degraded immediately before irreversible inhibition. […]

T1 sequence (P22303 32-614): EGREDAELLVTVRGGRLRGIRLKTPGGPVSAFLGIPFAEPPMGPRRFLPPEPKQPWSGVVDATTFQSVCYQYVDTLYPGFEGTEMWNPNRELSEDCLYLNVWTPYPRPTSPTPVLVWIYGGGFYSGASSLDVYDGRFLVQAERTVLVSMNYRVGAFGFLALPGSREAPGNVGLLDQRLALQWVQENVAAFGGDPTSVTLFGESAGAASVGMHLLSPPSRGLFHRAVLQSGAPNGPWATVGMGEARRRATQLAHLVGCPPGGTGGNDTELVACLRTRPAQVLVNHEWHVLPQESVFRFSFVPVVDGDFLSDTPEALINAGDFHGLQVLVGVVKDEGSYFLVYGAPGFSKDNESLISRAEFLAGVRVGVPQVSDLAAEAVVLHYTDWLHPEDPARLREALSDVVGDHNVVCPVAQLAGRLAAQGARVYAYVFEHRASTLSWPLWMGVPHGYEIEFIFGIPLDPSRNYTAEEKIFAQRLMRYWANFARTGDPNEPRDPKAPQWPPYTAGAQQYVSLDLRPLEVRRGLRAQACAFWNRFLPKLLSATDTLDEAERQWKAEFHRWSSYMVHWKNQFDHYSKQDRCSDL
Chain of BChE (P06276 29-602): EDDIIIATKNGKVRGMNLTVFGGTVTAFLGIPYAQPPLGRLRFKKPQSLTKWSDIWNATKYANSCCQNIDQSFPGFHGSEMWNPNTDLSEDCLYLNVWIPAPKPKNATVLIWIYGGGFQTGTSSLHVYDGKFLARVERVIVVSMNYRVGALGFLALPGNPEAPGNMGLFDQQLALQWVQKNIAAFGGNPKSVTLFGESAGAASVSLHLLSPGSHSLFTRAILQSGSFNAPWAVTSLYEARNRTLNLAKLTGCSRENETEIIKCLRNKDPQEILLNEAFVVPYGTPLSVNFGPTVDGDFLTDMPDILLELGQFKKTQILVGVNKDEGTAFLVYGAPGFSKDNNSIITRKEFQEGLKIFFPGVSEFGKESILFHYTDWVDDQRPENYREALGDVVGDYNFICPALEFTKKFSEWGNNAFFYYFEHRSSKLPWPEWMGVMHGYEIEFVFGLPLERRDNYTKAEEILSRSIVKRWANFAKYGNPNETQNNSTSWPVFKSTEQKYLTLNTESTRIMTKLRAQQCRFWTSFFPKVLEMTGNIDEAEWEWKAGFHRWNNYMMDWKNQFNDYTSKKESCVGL

For `COc1ccc(-c2csc(NN=Cc3ccc(N4CCN(c5ccc(F)cc5)CC4)cc3)n2)cc1` [Compound 3c, 2-(2-(4-(4-(4-fluorophenyl)piperazin-1-yl)benzylidene)hydrazineyl)-4-(4-methoxyphenyl)thiazole], the inhibition at 1000 µM [1] was 88.5 ± 1.1%, the IC50 [1] was 31.7 ± 1 nM and the inhibition at 1000 µM [2] was 28 ± 0.43%. The inhibition at 100 µM [2] was 21.6 ± 0.65%, the inhibition at 1000 µM [3] was 38.6 ± 0.58% and the inhibition at 100 µM [3] was 21.8 ± 0.55%. For the same molecule, the inhibition at 1000 µM [4] was 85.1 ± 1%, the inhibition at 100 µM [4] was 70.3 ± 0.85% and the IC50 ([4]; read-out: MAO-B IC50) was 1020 ± 42 nM. For the same molecule, the type of inhibition ([5]; Lineweaver–Burk plots, 2 × IC50, IC50 and IC50/2, substrate 600 µM to 18.75 µM) was “mixed type” and the Ki ([5]; secondary plot of Km/Vmax (slope) versus inhibitor concentration, read-out: steady-state inhibition constant (Ki)) was 19.7 nM.

`Fc1ccc(N2CCN(c3ccc(C=NNc4nc(-c5ccc(C(F)(F)F)cc5)cs4)cc3)CC2)cc1` [Compound 3i, 2-(2-(4-(4-(4-fluorophenyl)piperazin-1-yl)benzylidene)hydrazineyl)-4-(4-(trifluoromethyl)phenyl)thiazole] was tested, and the inhibition at 1000 µM [1] was 80.7 ± 1.02%, the IC50 [1] was 216 ± 10 nM and the inhibition at 100 µM [1] was greater than 50%. For the same molecule, the inhibition at 1000 µM [2] was 45.4 ± 0.52%, the inhibition at 100 µM [2] was 35.4 ± 0.39% and the inhibition at 1000 µM [3] was 38.2 ± 0.78%. It also gave an inhibition at 100 µM [3] of 22.8 ± 0.54%, an inhibition at 1000 µM [4] of 59.1 ± 0.77% and an inhibition at 100 µM [4] of 40.2 ± 0.58%.

With `Cc1ccc(-c2csc(NN=Cc3ccc(N4CCN(c5ccc(F)cc5)CC4)cc3)n2)c(C)c1` [Compound 3j, 4-(2,4-dimethylphenyl)-2-(2-(4-(4-(4-fluorophenyl)piperazin-1-yl)benzylidene)hydrazineyl)thiazole] the inhibition at 1000 µM [1] was 53.8 ± 0.62%, the inhibition at 100 µM [1] was 26.9 ± 0.55% and the inhibition at 1000 µM [2] was 31.9 ± 0.47%. It also gave an inhibition at 100 µM [2] of 25.7 ± 0.49%, an inhibition at 1000 µM [3] of 48.2 ± 0.88% and an inhibition at 100 µM [3] of 40.2 ± 0.52%. For the same molecule, the inhibition at 1000 µM [4] was 69.2 ± 1.2% and the inhibition at 100 µM [4] was 40.8 ± 0.92%.

Molecule `Fc1ccc(N2CCN(c3ccc(C=NNc4nc(-c5ccc(Cl)cc5Cl)cs4)cc3)CC2)cc1` [Compound 3k, 4-(2,4-dichlorophenyl)-2-(2-(4-(4-(4-fluorophenyl)piperazin-1-yl)benzylidene)hydrazineyl)thiazole] has an inhibition at 1000 µM [1] of 35.7 ± 0.57%, an inhibition at 100 µM [1] of 20.4 ± 0.3% and an inhibition at 1000 µM [2] of 28.59 ± 0.25%. The inhibition at 100 µM [2] was 21 ± 0.61%, the inhibition at 1000 µM [3] was 35.2 ± 0.48% and the inhibition at 100 µM [3] was 19.1 ± 0.4%. It also gave an inhibition at 1000 µM [4] of 55.1 ± 0.92% and an inhibition at 100 µM [4] of 34.2 ± 0.81%.
